Source: US9963445B2, “Chemical compounds” (SYNGENTA PARTICIPATIONS AG, priority 2013, dated 2018)

System: Abutilon theophrasti
Test: Pre-emergence herbicidal activity, glasshouse pot test
Format: in vivo
Conditions: pre-emergence spray, rate 1000 g/ha, evaluated after 13 days, scale 0-5
Outline: (§1)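 Glasshouse conditions were 24/16 °C day/night with 14 h light and 65% humidity throughout. Soil was sprayed before emergence, one day after sowing, using an acetone/water (50:50) formulation with 0.5% Tween 20; injury was scored 0–5 after 13 days.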

Compound | ABUTH damage score, application pre-emergence
CC1=C(Cl)C(=O)N(c2cc3c(cn2)CCCC3)C1O (stereo not drawn) [AF89] | 1
CC1=C(Cl)C(=O)N(c2cc(C(F)(F)F)c(C(=O)OC(C)C)cn2)C1O (stereo not drawn) [AF92] | 2
CC1=C(Cl)C(=O)N(c2cc(C(F)(F)F)c(-c3ccc(C#N)cc3)cn2)C1O (stereo not drawn) [AF93] | 1
CCC(=O)OC1C(C)=C(Cl)C(=O)N1c1cc(C(F)(F)F)c(-c2cccc(C#N)c2)cn1 (stereo not drawn) [AF94] | 0

System: Alopecurus myosuroides
Test: as above
Format: in vivo
Conditions: pre-emergence spray, rate 1000 g/ha, evaluated after 13 days, scale 0-5
Outline: as §1

Compound | ALOMY damage score, application pre-emergence
CC1=C(Cl)C(=O)N(c2cc3c(cn2)CCCC3)C1O (stereo not drawn) [AF89] | 2
CC1=C(Cl)C(=O)N(c2cc(C(F)(F)F)c(C(=O)OC(C)C)cn2)C1O (stereo not drawn) [AF92] | 4
CC1=C(Cl)C(=O)N(c2cc(C(F)(F)F)c(-c3ccc(C#N)cc3)cn2)C1O (stereo not drawn) [AF93] | 0
CCC(=O)OC1C(C)=C(Cl)C(=O)N1c1cc(C(F)(F)F)c(-c2cccc(C#N)c2)cn1 (stereo not drawn) [AF94] | 0

System: Amaranthus retroflexus
Test: as above
Format: in vivo
Conditions: pre-emergence spray, rate 1000 g/ha, evaluated after 13 days, scale 0-5
Outline: as §1

Compound | AMARE damage score, application pre-emergence
CC1=C(Cl)C(=O)N(c2cc3c(cn2)CCCC3)C1O (stereo not drawn) [AF89] | 2
CC1=C(Cl)C(=O)N(c2cc(C(F)(F)F)c(C(=O)OC(C)C)cn2)C1O (stereo not drawn) [AF92] | 4
CC1=C(Cl)C(=O)N(c2cc(C(F)(F)F)c(-c3ccc(C#N)cc3)cn2)C1O (stereo not drawn) [AF93] | 2
CCC(=O)OC1C(C)=C(Cl)C(=O)N1c1cc(C(F)(F)F)c(-c2cccc(C#N)c2)cn1 (stereo not drawn) [AF94] | 3

System: Echinochloa crus-galli
Test: as above
Format: in vivo
Conditions: pre-emergence spray, rate 1000 g/ha, evaluated after 13 days, scale 0-5
Outline: as §1

Compound | ECHCG damage score, application pre-emergence
CC1=C(Cl)C(=O)N(c2cc3c(cn2)CCCC3)C1O (stereo not drawn) [AF89] | 3
CC1=C(Cl)C(=O)N(c2cc(C(F)(F)F)c(C(=O)OC(C)C)cn2)C1O (stereo not drawn) [AF92] | 3
CC1=C(Cl)C(=O)N(c2cc(C(F)(F)F)c(-c3ccc(C#N)cc3)cn2)C1O (stereo not drawn) [AF93] | 0
CCC(=O)OC1C(C)=C(Cl)C(=O)N1c1cc(C(F)(F)F)c(-c2cccc(C#N)c2)cn1 (stereo not drawn) [AF94] | 0

System: Setaria faberi
Test: as above
Format: in vivo
Conditions: pre-emergence spray, rate 1000 g/ha, evaluated after 13 days, scale 0-5
Outline: as §1

Compound | SETFA damage score, application pre-emergence
CC1=C(Cl)C(=O)N(c2cc3c(cn2)CCCC3)C1O (stereo not drawn) [AF89] | 5
CC1=C(Cl)C(=O)N(c2cc(C(F)(F)F)c(C(=O)OC(C)C)cn2)C1O (stereo not drawn) [AF92] | 5
CC1=C(Cl)C(=O)N(c2cc(C(F)(F)F)c(-c3ccc(C#N)cc3)cn2)C1O (stereo not drawn) [AF93] | 0
CCC(=O)OC1C(C)=C(Cl)C(=O)N1c1cc(C(F)(F)F)c(-c2cccc(C#N)c2)cn1 (stereo not drawn) [AF94] | 0

System: zea mays
Test: as above
Format: in vivo
Conditions: pre-emergence spray, rate 1000 g/ha, evaluated after 13 days, scale 0-5
Outline: as §1

Compound | ZEAMX damage score, application pre-emergence
CC1=C(Cl)C(=O)N(c2cc3c(cn2)CCCC3)C1O (stereo not drawn) [AF89] | 1
CC1=C(Cl)C(=O)N(c2cc(C(F)(F)F)c(C(=O)OC(C)C)cn2)C1O (stereo not drawn) [AF92] | 3
CC1=C(Cl)C(=O)N(c2cc(C(F)(F)F)c(-c3ccc(C#N)cc3)cn2)C1O (stereo not drawn) [AF93] | 0
CCC(=O)OC1C(C)=C(Cl)C(=O)N1c1cc(C(F)(F)F)c(-c2cccc(C#N)c2)cn1 (stereo not drawn) [AF94] | 0

System: Abutilon theophrasti
Test: Post-emergence herbicidal activity, glasshouse pot test
Format: in vivo
Set-up: key: 0 = no damage to plant, 5 = total damage to plant
Conditions: Application post-emergence, rate 1000 g/ha, evaluated after 13 days
Outline: (§2)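 Pot-grown seedlings, sown in standard soil, were sprayed 8 days after sowing and kept in a controlled glasshouse (24/16 °C, 14 h photoperiod, 65% humidity). Injury was assessed visually 13 days later on a scale where 5 means total damage.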

Compound | ABUTH herbicidal damage score
CC1=C(Cl)C(=O)N(c2cc3c(cn2)CCCC3)C1O (stereo not drawn) [AF89] | 5
CC1=C(Cl)C(=O)N(c2cc(C(F)(F)F)c(C(=O)OC(C)C)cn2)C1O (stereo not drawn) [AF92] | 5
CC1=C(Cl)C(=O)N(c2cc(C(F)(F)F)c(-c3ccc(C#N)cc3)cn2)C1O (stereo not drawn) [AF93] | 4
CCC(=O)OC1C(C)=C(Cl)C(=O)N1c1cc(C(F)(F)F)c(-c2cccc(C#N)c2)cn1 (stereo not drawn) [AF94] | 3

System: Alopecurus myosuroides
Test: as above
Format: in vivo
Set-up: key: 0 = no damage to plant, 5 = total damage to plant
Conditions: Application post-emergence, rate 1000 g/ha, evaluated after 13 days
Outline: as §2

Compound | ALOMY herbicidal damage score
CC1=C(Cl)C(=O)N(c2cc3c(cn2)CCCC3)C1O (stereo not drawn) [AF89] | 3
CC1=C(Cl)C(=O)N(c2cc(C(F)(F)F)c(C(=O)OC(C)C)cn2)C1O (stereo not drawn) [AF92] | 4
CC1=C(Cl)C(=O)N(c2cc(C(F)(F)F)c(-c3ccc(C#N)cc3)cn2)C1O (stereo not drawn) [AF93] | 4
CCC(=O)OC1C(C)=C(Cl)C(=O)N1c1cc(C(F)(F)F)c(-c2cccc(C#N)c2)cn1 (stereo not drawn) [AF94] | 3

System: Amaranthus retroflexus
Test: as above
Format: in vivo
Set-up: key: 0 = no damage to plant, 5 = total damage to plant
Conditions: Application post-emergence, rate 1000 g/ha, evaluated after 13 days
Outline: as §2

Compound | AMARE herbicidal damage score
CC1=C(Cl)C(=O)N(c2cc3c(cn2)CCCC3)C1O (stereo not drawn) [AF89] | 5
CC1=C(Cl)C(=O)N(c2cc(C(F)(F)F)c(C(=O)OC(C)C)cn2)C1O (stereo not drawn) [AF92] | 5
CC1=C(Cl)C(=O)N(c2cc(C(F)(F)F)c(-c3ccc(C#N)cc3)cn2)C1O (stereo not drawn) [AF93] | 5
CCC(=O)OC1C(C)=C(Cl)C(=O)N1c1cc(C(F)(F)F)c(-c2cccc(C#N)c2)cn1 (stereo not drawn) [AF94] | 4

System: Echinochloa crus-galli
Test: as above
Format: in vivo
Set-up: key: 0 = no damage to plant, 5 = total damage to plant
Conditions: Application post-emergence, rate 1000 g/ha, evaluated after 13 days
Outline: as §2

Compound | ECHCG herbicidal damage score
CC1=C(Cl)C(=O)N(c2cc3c(cn2)CCCC3)C1O (stereo not drawn) [AF89] | 5
CC1=C(Cl)C(=O)N(c2cc(C(F)(F)F)c(C(=O)OC(C)C)cn2)C1O (stereo not drawn) [AF92] | 5
CC1=C(Cl)C(=O)N(c2cc(C(F)(F)F)c(-c3ccc(C#N)cc3)cn2)C1O (stereo not drawn) [AF93] | 4
CCC(=O)OC1C(C)=C(Cl)C(=O)N1c1cc(C(F)(F)F)c(-c2cccc(C#N)c2)cn1 (stereo not drawn) [AF94] | 3

System: Setaria faberi
Test: as above
Format: in vivo
Set-up: key: 0 = no damage to plant, 5 = total damage to plant
Conditions: Application post-emergence, rate 1000 g/ha, evaluated after 13 days
Outline: as §2

Compound | SETFA herbicidal damage score
CC1=C(Cl)C(=O)N(c2cc3c(cn2)CCCC3)C1O (stereo not drawn) [AF89] | 5
CC1=C(Cl)C(=O)N(c2cc(C(F)(F)F)c(C(=O)OC(C)C)cn2)C1O (stereo not drawn) [AF92] | 5
CC1=C(Cl)C(=O)N(c2cc(C(F)(F)F)c(-c3ccc(C#N)cc3)cn2)C1O (stereo not drawn) [AF93] | 4
CCC(=O)OC1C(C)=C(Cl)C(=O)N1c1cc(C(F)(F)F)c(-c2cccc(C#N)c2)cn1 (stereo not drawn) [AF94] | 3

System: zea mays
Test: as above
Format: in vivo
Set-up: key: 0 = no damage to plant, 5 = total damage to plant
Conditions: Application post-emergence, rate 1000 g/ha, evaluated after 13 days
Outline: as §2

Compound | ZEAMX herbicidal damage score
CC1=C(Cl)C(=O)N(c2cc3c(cn2)CCCC3)C1O (stereo not drawn) [AF89] | 1
CC1=C(Cl)C(=O)N(c2cc(C(F)(F)F)c(C(=O)OC(C)C)cn2)C1O (stereo not drawn) [AF92] | 4
CC1=C(Cl)C(=O)N(c2cc(C(F)(F)F)c(-c3ccc(C#N)cc3)cn2)C1O (stereo not drawn) [AF93] | 2
CCC(=O)OC1C(C)=C(Cl)C(=O)N1c1cc(C(F)(F)F)c(-c2cccc(C#N)c2)cn1 (stereo not drawn) [AF94] | 1
